# Test results: US20260167619A2, “INDOLINE COMPOUNDS AND DERIVATIVES AS EGFR INHIBITORS” (BeOne Medicines I GmbH, priority 2020, published 2026)
# What was measured:
# [1] = target: T1, EGFR (aa668-1210, Invitrogen) (Homo sapiens, UniProt P00533); test: Biochemical EGFR inhibition assay (TR-FRET), wild-type EGFR; conditions: ATP at Km, 15 min pre-incubation, 60 min reaction; read-out: WT (Km ATP) IC50
# T1 construct: EGFR (aa668-1210, Invitrogen); purchased Invitrogen
# Outline: (§1)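 Signal was the 665 nm/620 nm emission ratio (excitation 337 nm) from anti-phosphotyrosine Eu cryptate and streptavidin-XL665 bound to phosphorylated biotin-poly GT. Reactions ran 60 min at room temperature with ATP at its Km after 15 min compound preincubation. Residual activity versus concentration was fitted to a four-parameter logistic for IC50.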
# [2] = target: T2, EGFR(L858R_T790M_C797S) (aa695-end, Invitrogen) (Homo sapiens, UniProt P00533, C797S/L858R/T790M); test: Biochemical EGFR inhibition assay (TR-FRET), L858R/T790M/C797S mutant; conditions: ATP at Km, 15 min pre-incubation, 60 min reaction; read-out: LR_TM_CS (Km ATP) IC50
# T2 construct: purchased Invitrogen
# Outline: as §1
# [3] = target: EGFR(Dell9_T790M_C797S) (aa 669-1210, in house) (Homo sapiens, UniProt P00533, T790M/C797S, form not given); test: Biochemical EGFR inhibition assay (TR-FRET), Del19/T790M/C797S mutant; conditions: ATP at Km, 15 min pre-incubation, 60 min reaction; read-out: Del_TM_CS (Km ATP) IC50
# Outline: as §1
# [4] = target: BaF3-WT cells (Homo sapiens, UniProt P00533); test: Cell antiproliferation assay (CellTiter-Glo), BaF3-WT; assay type: cell-based; conditions: 48 h treatment, read-out: BaF3-WT IC50
# Experimental: (§2) BaF3 cells are treated with compounds diluted in 0.2% DMSO, dilution is done according to the following protocol: (1) make 500× stock solution in DMSO from 5 mM by 5-fold dilution, total 8 doses were included; (2) make 10× solution in cell culture medium by transferring 2 μl 500× stock solution into 98 μl medium; (3) 10 μl of 10× solution is added to cells and incubate for 48 h.
# (§3) After 48 h treatment, add 30 μl CellTiter-Glo reagent[CellTiter-Glo® 2.0, (Promega, Cat #G9242)] to each well; seal the plate and incubate 2 min at room temperature on a plate shaker; Allow the plate to incubate at room temperature for 10 minutes to stabilize the luminescent signal. Record luminescence on BMG PheraStar with luminescence protocol.
# (§4) The IC50 value of a compound can be obtained by fitting the following equation
# (§5) Wherein, X and Y are known values, and IC50, Hillslope, Top and Bottom are the parameters obtained by fitting with software. Y is the inhibition percentage (calculated from the equation), X is the concentration of the compound; IC50 is the concentration of the compound when the 50% inhibition is reached. The smaller the IC50 value is, the stronger the inhibitory ability of the compound is. Vice versa, the higher the IC50 value is, the weaker the ability the inhibitory ability of the compound is; Hillslope represents the slope of the fitted curve, generally around 1 *; Bottom represents the minimum value of the curve obtained by data fitting, which is generally 0%±20%; Top represents the maximum value of the curve obtained by data fitting, which is generally 100%±20%. The experimental data were fitted by calculating and analyzing with Dotmatics data analysis software.
# [5] = target: BaF3-LR_TM_CS cells (Homo sapiens, UniProt P00533, T790M/C797S/L858R, cells depend on it); test: Cell antiproliferation assay (CellTiter-Glo), BaF3-LR_TM_CS; assay type: cell-based; conditions: 48 h treatment, read-out: BaF3-LR_TM_CS IC50
# Experimental: as §2, §3, §4, §5
# [6] = target: BaF3-Del_TM_CS cells (Homo sapiens, UniProt P00533, T790M/C797S, cells depend on it, form not given); test: Cell antiproliferation assay (CellTiter-Glo), BaF3-Del_TM_CS; assay type: cell-based; conditions: 48 h treatment, read-out: BaF3-Del_TM_CS IC50
# Experimental: as §2, §3, §4, §5
# Sequence of BaF3-WT cells (P00533 whole entry, change not shown): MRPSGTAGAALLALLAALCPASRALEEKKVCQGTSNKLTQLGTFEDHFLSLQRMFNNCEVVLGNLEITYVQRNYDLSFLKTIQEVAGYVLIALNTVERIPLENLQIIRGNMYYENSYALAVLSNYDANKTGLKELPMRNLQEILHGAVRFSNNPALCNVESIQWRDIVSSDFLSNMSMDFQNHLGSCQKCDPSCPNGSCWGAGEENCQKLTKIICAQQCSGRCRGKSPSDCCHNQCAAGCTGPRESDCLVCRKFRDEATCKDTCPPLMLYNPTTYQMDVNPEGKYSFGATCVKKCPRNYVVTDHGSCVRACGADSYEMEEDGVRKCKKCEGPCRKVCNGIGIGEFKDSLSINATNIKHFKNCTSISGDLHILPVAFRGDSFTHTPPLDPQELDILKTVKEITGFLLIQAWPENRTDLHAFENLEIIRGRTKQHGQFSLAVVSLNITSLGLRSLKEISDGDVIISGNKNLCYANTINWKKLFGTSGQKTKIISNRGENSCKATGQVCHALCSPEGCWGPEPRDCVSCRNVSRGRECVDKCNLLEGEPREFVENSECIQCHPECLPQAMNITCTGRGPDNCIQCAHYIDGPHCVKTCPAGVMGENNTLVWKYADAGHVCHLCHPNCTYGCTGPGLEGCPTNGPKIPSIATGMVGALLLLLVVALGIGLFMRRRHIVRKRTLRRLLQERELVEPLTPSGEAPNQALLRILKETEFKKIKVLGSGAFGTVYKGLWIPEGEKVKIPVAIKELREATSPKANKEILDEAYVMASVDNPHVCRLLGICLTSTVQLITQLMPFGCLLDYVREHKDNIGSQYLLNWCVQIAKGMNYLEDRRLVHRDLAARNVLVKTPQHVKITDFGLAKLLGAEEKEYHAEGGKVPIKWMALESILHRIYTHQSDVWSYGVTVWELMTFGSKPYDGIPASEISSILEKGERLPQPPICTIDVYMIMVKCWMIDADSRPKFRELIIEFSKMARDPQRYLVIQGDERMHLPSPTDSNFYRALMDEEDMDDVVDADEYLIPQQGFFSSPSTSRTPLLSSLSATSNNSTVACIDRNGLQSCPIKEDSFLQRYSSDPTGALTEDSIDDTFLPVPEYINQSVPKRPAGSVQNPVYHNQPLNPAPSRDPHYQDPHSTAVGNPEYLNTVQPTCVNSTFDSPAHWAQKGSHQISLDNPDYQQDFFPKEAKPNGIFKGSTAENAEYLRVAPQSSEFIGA
# T2 sequence (P00533 695-1210 T790M/C797S/L858R): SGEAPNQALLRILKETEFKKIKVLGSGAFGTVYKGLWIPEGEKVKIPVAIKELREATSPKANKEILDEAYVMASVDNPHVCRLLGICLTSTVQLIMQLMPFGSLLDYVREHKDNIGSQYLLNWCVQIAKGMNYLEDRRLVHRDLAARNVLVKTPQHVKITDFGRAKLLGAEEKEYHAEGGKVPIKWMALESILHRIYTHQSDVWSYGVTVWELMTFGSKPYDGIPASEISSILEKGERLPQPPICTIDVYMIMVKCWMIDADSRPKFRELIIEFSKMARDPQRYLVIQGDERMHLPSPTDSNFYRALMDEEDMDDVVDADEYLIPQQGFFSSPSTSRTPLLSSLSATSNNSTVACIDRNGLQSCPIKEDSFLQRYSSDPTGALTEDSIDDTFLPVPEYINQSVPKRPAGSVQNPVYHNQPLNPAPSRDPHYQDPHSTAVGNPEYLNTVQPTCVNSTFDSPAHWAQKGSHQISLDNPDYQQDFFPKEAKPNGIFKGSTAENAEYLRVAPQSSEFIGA
# Sequence of BaF3-LR_TM_CS cells (P00533 whole entry T790M/C797S/L858R): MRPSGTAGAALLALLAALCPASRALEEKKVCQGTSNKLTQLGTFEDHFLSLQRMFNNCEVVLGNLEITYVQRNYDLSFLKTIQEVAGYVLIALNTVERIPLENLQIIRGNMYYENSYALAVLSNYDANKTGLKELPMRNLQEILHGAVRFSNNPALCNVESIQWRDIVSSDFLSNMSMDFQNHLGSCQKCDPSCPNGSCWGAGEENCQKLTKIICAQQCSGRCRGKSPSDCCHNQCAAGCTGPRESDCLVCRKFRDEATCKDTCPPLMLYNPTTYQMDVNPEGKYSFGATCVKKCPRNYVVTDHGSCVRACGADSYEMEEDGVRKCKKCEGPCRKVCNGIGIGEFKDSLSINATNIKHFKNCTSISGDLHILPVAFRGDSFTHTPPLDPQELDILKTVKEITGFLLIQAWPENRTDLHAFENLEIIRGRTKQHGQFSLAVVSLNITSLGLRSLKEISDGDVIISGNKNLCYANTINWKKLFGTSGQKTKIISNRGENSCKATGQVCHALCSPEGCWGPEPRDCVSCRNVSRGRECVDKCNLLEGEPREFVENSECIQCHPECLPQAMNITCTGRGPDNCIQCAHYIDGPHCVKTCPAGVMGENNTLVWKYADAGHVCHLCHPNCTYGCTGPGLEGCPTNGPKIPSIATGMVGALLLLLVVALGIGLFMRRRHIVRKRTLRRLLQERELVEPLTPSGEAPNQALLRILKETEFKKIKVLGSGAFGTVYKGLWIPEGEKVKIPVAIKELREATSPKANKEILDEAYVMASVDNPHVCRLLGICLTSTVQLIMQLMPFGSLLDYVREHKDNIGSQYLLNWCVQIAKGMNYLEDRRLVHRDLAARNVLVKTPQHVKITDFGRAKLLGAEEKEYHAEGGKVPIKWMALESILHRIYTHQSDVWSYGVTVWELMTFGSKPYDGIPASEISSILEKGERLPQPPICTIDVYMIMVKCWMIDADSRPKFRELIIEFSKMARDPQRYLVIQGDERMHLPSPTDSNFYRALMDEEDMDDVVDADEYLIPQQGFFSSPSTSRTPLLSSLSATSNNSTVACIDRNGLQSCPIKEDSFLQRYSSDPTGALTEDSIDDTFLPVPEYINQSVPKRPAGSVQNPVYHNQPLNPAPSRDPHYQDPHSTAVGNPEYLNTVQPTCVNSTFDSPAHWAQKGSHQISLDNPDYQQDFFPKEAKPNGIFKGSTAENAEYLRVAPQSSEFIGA
# Sequence of BaF3-Del_TM_CS cells (P00533 with tags, fused parts or gaps DEL746-750/T790M/C797S, form open): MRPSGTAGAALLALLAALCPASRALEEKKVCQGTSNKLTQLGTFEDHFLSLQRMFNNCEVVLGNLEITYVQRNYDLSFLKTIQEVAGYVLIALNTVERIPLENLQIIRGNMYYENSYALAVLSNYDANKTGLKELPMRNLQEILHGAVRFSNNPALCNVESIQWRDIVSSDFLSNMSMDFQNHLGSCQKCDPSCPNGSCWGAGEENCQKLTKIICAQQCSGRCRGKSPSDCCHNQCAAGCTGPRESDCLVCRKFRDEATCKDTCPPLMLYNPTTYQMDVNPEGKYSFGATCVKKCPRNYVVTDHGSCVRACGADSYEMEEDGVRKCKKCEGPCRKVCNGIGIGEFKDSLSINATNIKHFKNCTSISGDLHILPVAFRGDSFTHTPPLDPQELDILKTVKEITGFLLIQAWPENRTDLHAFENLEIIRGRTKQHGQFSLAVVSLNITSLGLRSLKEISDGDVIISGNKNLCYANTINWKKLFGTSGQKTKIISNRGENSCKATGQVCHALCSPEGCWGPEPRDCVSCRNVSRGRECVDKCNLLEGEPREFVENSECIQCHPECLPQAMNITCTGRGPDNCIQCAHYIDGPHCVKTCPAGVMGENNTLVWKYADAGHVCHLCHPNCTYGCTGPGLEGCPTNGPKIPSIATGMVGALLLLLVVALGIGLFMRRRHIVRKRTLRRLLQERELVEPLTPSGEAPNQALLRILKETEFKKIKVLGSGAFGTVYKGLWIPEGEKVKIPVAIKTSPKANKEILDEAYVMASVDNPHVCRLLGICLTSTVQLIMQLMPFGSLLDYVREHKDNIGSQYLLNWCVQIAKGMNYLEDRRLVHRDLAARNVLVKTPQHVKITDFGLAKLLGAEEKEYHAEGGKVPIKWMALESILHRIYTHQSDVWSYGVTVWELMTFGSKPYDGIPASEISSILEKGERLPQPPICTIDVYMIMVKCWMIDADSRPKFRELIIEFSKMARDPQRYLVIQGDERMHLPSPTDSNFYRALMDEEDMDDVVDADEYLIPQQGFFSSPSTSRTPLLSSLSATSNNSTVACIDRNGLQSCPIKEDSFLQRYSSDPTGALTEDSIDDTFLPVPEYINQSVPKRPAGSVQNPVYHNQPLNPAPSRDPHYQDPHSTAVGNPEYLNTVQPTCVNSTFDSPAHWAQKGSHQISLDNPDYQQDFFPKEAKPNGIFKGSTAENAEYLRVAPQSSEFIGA
# T1 sequence (P00533 668-1210): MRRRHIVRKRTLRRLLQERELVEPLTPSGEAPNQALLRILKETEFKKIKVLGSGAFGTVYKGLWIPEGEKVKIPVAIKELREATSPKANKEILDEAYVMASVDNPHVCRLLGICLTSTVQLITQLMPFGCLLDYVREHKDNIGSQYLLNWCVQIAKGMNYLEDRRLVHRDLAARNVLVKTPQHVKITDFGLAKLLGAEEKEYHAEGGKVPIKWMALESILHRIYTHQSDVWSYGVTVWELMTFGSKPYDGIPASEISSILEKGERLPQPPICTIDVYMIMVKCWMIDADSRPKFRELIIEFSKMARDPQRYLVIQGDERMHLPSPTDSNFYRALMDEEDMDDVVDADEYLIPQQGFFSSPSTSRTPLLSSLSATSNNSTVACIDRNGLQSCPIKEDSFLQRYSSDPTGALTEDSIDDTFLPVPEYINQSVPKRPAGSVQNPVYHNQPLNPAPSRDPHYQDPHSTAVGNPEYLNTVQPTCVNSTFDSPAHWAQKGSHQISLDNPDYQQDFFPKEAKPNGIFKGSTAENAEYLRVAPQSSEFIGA
Compound,IC50 [1] [nM],IC50 [2] [nM],IC50 [3] [nM],GI50 [4] [nM],GI50 [5] [nM],GI50 [6] [nM]
"COc1cc(N2CCCN(C)CC2)c(C)cc1Nc1nc(Nc2cccc3c2N(S(C)(=O)=O)CC3)c2cc[nH]c2n1 [Example 101, N^2-(2-methoxy-5-methyl-4-(4-methyl-1,4-diazepan-1-yl)phenyl)-N^4-(1-(methylsulfonyl)indolin-7-yl)-7H-pyrrolo[2,3-d]pyrimidine-2,4-diamine]",170,2,3.1,1410,157,58.9
"COc1cc(N2CCC(N3CCN(C)CC3)CC2)ccc1Nc1ncc(Cl)c(Nc2cccc3c2N(C(C)=O)CC3)n1 [Example 17, 1-(7-((5-chloro-2-((2-methoxy-4-(4-(4-methylpiperazin-1-yl)piperidin-1-yl)phenyl)amino)pyrimidin-4-yl)amino)indolin-1-yl)ethan-1-one]",21,6.7,15,1710,366,183
"COc1cc(N2CCC(N3CCN(C)CC3)CC2)ccc1Nc1ncc(Cl)c(Nc2cc(C)cc3c2N(S(C)(=O)=O)CC3)n1 [Example 5, 5-chloro-N^2-(2-methoxy-4-(4-(4-methylpiperazin-1-yl)piperidin-1-yl)phenyl)-N^4-(5-methyl-1-(methylsulfonyl)indolin-7-yl)pyrimidine-2,4-diamine]",311,162,159,2320,1290,971
"CN(C)C1CCN(c2ccc(Nc3nc(Nc4cccc5c4N(S(C)(=O)=O)CC5)c4cc[nH]c4n3)c3c2CCO3)CC1 [Example 124, N^2-(4-(4-(dimethylamino)piperidin-1-yl)-2,3-dihydrobenzofuran-7-yl)-N^4-(1-(methylsulfonyl)indolin-7-yl)-7H-pyrrolo[2,3-d]pyrimidine-2,4-diamine]",107,1,1,460,106,39.1
"COc1cc(N2CCN(C)[C@@H](C)C2)c(C)cc1Nc1nc(Nc2cccc3c2N(S(C)(=O)=O)CC3)c2cc[nH]c2n1 [Example 105, (S)—N^2-(4-(3,4-dimethylpiperazin-1-yl)-2-methoxy-5-methylphenyl)-N^4-(1-(methylsulfonyl)indolin-7-yl)-7H-pyrrolo[2,3-d]pyrimidine-2,4-diamine]",455,5.3,10,2090,240,87
"COc1cc(N2CCC(N3CCN(C)CC3)CC2)ccc1Nc1ncc(Cl)c(Nc2cccc3c2N(S(C)(=O)=O)CC3C)n1 (stereo not drawn) [Example 23, 5-chloro-N^2-(2-methoxy-4-(4-(4-methylpiperazin-1-yl)piperidin-1-yl)phenyl)-N^4-(3-methyl-1-(methylsulfonyl)indolin-7-yl)pyrimidine-2,4-diamine]",1.1,0.54,0.54,453,38.4,13.3
"COc1cc(N2CCC(N3CCN(C)CC3)CC2)ccc1Nc1ncc(Br)c(Nc2cccc3c2N(S(C)(=O)=O)CC3)n1 [Example 34, 5-bromo-N2-(2-methoxy-4-(4-(4-methylpiperazin-1-yl)piperidin-1-yl)phenyl)-N4-(1-(methylsulfonyl)indolin-7-yl)pyrimidine-2,4-diamine]",0.72,0.21,0.24,427,13,4.25
"COc1cc(N2CCC(N3CCN(C)CC3)CC2)ccc1Nc1ncc(C(F)(F)F)c(Nc2cccc3c2N(S(C)(=O)=O)CC3)n1 [Example 31, N^2-(2-methoxy-4-(4-(4-methylpiperazin-1-yl)piperidin-1-yl)phenyl)-N^4-(1-(methylsulfonyl)indolin-7-yl)-5-(trifluoromethyl)pyrimidine-2,4-diamine]",3.1,0.33,0.47,522,109,26.2
"COc1cc(N2CCC(N3CCN(C)CC3)CC2)ccc1Nc1ncc(Cl)c(Nc2cccc3c2N(S(=O)(=O)N(C)C)CC3)n1 [Example 13, 7-((5-chloro-2-((2-methoxy-4-(4-(4-methylpiperazin-1-yl)piperidin-1-yl)phenyl)amino)pyrimidin-4-yl)amino)-N,N-dimethylindoline-1-sulfonamide]",13,1.3,6.2,897,294,158

# The remaining molecules from weak to strong by IC50 [1], led by results:
IC50 [1] [nM],IC50 [2] [nM],IC50 [3] [nM],GI50 [4] [nM],GI50 [5] [nM],GI50 [6] [nM],Compound
575,5.3,4.9,1790,93.8,57.3,"COc1cc(N2C[C@@H](C)N(C)[C@@H](C)C2)c(C)cc1Nc1nc(Nc2cccc3c2N(S(C)(=O)=O)CC3)c2cc[nH]c2n1 [Example 106, N^2-(2-methoxy-5-methyl-4-((3S,5R)-3,4,5-trimethylpiperazin-1-yl)phenyl)-N^4-(1-(methylsulfonyl)indolin-7-yl)-7H-pyrrolo[2,3-d]pyrimidine-2,4-diamine]"
206,2.4,4.3,1930,240,104,"COc1cc(N2CC3(CN(C)C3)C2)c(F)cc1Nc1nc(Nc2cccc3c2N(S(C)(=O)=O)CC3)c2cc[nH]c2n1 [Example 97, N^2-(5-fluoro-2-methoxy-4-(6-methyl-2,6-diazaspiro[3.3]heptan-2-yl)phenyl)-N^4-(1-(methylsulfonyl)indolin-7-yl)-7H-pyrrolo[2,3-d]pyrimidine-2,4-diamine]"
28,0.47,0.78,1690,76.7,25.6,"COc1cc(N2CCC(N(C)C)CC2)c(C)cc1Nc1nc(Nc2cccc3c2N(S(C)(=O)=O)CC3)c2cc[nH]c2n1 [Example 103, N^2-(4-(4-(dimethylamino)piperidin-1-yl)-2-methoxy-5-methylphenyl)-N^4-(1-(methylsulfonyl)indolin-7-yl)-7H-pyrrolo[2,3-d]pyrimidine-2,4-diamine]"
28,0.79,1.4,1960,83.8,9.58,"COc1cc(N2CCC(N3CCN(C)CC3)CC2)c(Cl)cc1Nc1nc(Nc2cccc3c2N(S(C)(=O)=O)CC3)c2cc[nH]c2n1 [Example 95, N^2-(5-chloro-2-methoxy-4-(4-(4-methylpiperazin-1-yl)piperidin-1-yl)phenyl)-N^4-(1-(methylsulfonyl)indolin-7-yl)-7H-pyrrolo[2,3-d]pyrimidine-2,4-diamine]"
1.8,0.61,0.57,457,81.6,53.9,"COc1cc(N2CCC(N3CCN(C)CC3)CC2)ccc1Nc1ncc(Cl)c(Nc2cccc3c2N(S(=O)(=O)C2CC2)CC3)n1 [Example 7, 5-chloro-N^4-(1-(cyclopropylsulfonyl)indolin-7-yl)-N^2-(2-methoxy-4-(4-(4-methylpiperazin-1-yl)piperidin-1-yl)phenyl)pyrimidine-2,4-diamine]"
1.4,0.24,0.59,193,14.3,8.76,"CNS(=O)(=O)N1CCc2cccc(Nc3nc(Nc4ccc(N5CCC(N6CCN(C)CC6)CC5)cc4OC)ncc3Cl)c21 [Example 14, 7-((5-chloro-2-((2-methoxy-4-(4-(4-methylpiperazin-1-yl)piperidin-1-yl)phenyl)amino)pyrimidin-4-yl)amino)-N-methylindoline-1-sulfonamide]"
